Source: patent US4105766A, “4,5-Dihydro-5-oxopyrazolo[1,5-a]quinazoline-3-carboxylic acid derivatives” (Sterling Drug Inc., priority 1977, dated 1978)

Tests used:
[1] = test system: carrageenin-induced foot edema; test: carrageenin-edema test (CE), inhibition of carrageenin-induced foot edema in rats; assay type: in vivo; settings: Rattus norvegicus, read-out: % Inhibition C.E.; for inhibition in vivo at 80 µmol/kg: dose .08 mmole/kg.; for inhibition in vivo at 324 µmol/kg: dose .324 mmole/kg.
Procedure: (1) The inhibition of carrageenin-induced foot edema test essentially described by Winter et al., Proc. Soc. […] Therap. […] J. Vet. […] Arch. Allergy Appl. Immunol.
Here, and elsewhere in other tables which follow, compounds are identified by the Example number above where their preparations are recorded. For purposes of comparison, data are also given for the reference compound 4,5-dihydro-5-oxopyrazolo[1,5-a]quinazoline-3-carboxylic acid disclosed by Wright, ibid., identified here and elsewhere in the tables which follow as "Ref.".

[2] = test system: adjuvant-induced arthritis; test: adjuvant arthritis test (AA), inhibition of adjuvant-induced arthritis in rats; assay type: in vivo; settings: Rattus norvegicus; for inhibition in vivo at 324 µmol/kg: dose .324 mmole/kg.; for inhibition in vivo at 80 µmol/kg: dose .08 mmole/kg.; for inhibition in vivo at 20 µmol/kg: dose .02 mmole/kg.
[3] = test system: passive cutaneous anaphylaxis; test: passive cutaneous anaphylaxis test in rats (anti-allergy); assay type: in vivo; settings: for R (ratio, passive cutaneous anaphylaxis) / inhibition in vivo at 100 mg/kg / ED50 / % Inhibition (passive cutaneous anaphylaxis): rats; for R (ratio, passive cutaneous anaphylaxis): R 1.0 to 2.0 inactive, 2.0 to 4.0 weakly active, 4.0 to 8.0 moderately active, >8.0 strongly active; for inhibition in vivo at 100 mg/kg / ED50: Rattus norvegicus, po; for inhibition in vivo at 100 mg/kg / % Inhibition (passive cutaneous anaphylaxis): standard dose of 100 mg./kg. (p.o.); for ED50: passive cutaneous anaphylaxis, read-out: Average Effective Dose50 (AED50)
Text: (1) The inhibition of carrageenin-induced foot edema test essentially described by Winter et al., Proc. Soc. Exp. Biol. and Med. 111, 544 (1962) as modified by Van Arman et al., J. Pharmacol. Exptl. Therap. 150, 328 (1965) and (2) a modification of the inhibition of adjuvant-induced arthritis test described by Pierson, J. Chronic Diseases 16, 863 (1963) and Glenn et al., Am. J. Vet. Res. 26, 1180 (1965), which were used to establish the anti-inflammatory activities of the compounds; and the passive cutaneous anaphylaxis test described by Mielens et al., Int. Arch. Allergy Appl. Immunol. 47, 633-649 (1974) which was used to establish the anti-allergy activity of the compounds.
Results are expressed either in terms of % Inhibition at a standard dose of 100 mg./kg. (p.o.), as an Average Effective Dose50 (AED50), or as a ratio, R, where: [formula]

[4] = test system: Trypanosoma brucei; test: trypanosomicidal test in infected mice; assay type: in vivo, Trypanosoma brucei (in mice)
Procedure: Trypanosomicidal activity of the compounds of the invention was determined in a test procedure in which albino female mice (Taconic Farms) weighing 20± 2 g. were intraperitoneally injected 3 days prior to initial medication with 0.2 ml. of an inoculum containing 500 Trypanosoma brucei organisms in 0.85% sterile saline. Blood for infecting purposes was obtained via cardiac puncture of a donor mouse previously determined to have a high parasitemia. Test medications to groups of five mice were started 3 days after infection at a time when the animals had begun to develop a rising blood parasitemia. […] Groups of 10 non-medicated infected control mice and five animals medicated with the reference compound LAMPIT® (tetrahydro-3-methyl-4-[(5-nitrofurfurylidene)amino]-2H-1,4-thiazine-1,1-dioxide) were included in each screening test. The test system is based on the survival of animals medicated with the test compound, and those mice alive at the end of 28 days post-infection were recorded as cured. (Non-medicated infected control mice rarely succumb later than 5 to 6 days post-innoculation with T. brucei). A compound was considered active if at least two of five animals survived until the termination of a 28 day post-infection holding period.
(§1) Results obtained in amoebacidal and trypanosomicidal tests on the compounds of the invention against E. criceti and T. brucei, respectively, are given in the table below. Results are expressed as a ratio: Number of Animals Cleared/Total Test Animals.

[5] = test system: Entamoeba criceti; test: amoebacidal test in naturally infected hamsters; assay type: in vivo, Entamoeba criceti (in hamsters)
Procedure: Anti-parasitic activity of the compounds was shown by the following test procedures. Amoebacidal activity was shown in a test in which 100 or more female hamsters (Sprague-Dawley) weighing between 90 and 130 g. were individually weighed and sorted into groups of five animals each averaging either 100 ± 10 g. or 120 ± 10g. The test compounds (at least 200 mg.) and a reference standard, N,N'-(phenylenedimethylene)-bis[α,α-dichloro-N-(2-ethoxyethyl)acetamide] (FALMONOX®), were dissolved or suspended in 10 percent gelatin. The test compounds and the reference standard were administered to the naturally infected hamsters intragastrically via syringe in equally subdivided doses of 0.5 ml. […] On the fourth day each of the test animals and the five hamsters receiving the reference drug, as well as non-medicated infected control animals, were killed and a portion of the mucus from the wall of the cecum was mixed in a drop of 0.85% sodium chloride. The preparation was examined under low power (100 ×) of a compound microscope for the presence of motile trophozoites of Entamoeba criceti, and when a preparation was determined to be free from trophozoites, a second specimen was taken from another part of the cecum of the same animal and thoroughly examined before the animal was declared cleared of amoebas. […] Results were recorded as a fraction: number of hamsters cleared/number of hamsters treated.
as §1

[6] = dose 200 mg./kg. p.o. 2×/day × 4

For `C=C(C)Cn1c(=O)c2ccccc2n2ncc(C(=O)O)c12` [Example 7D], the inhibition in vivo at 80 µmol/kg [1] was 15%, the inhibition in vivo at 324 µmol/kg [1] was 24% and the inhibition in vivo at 324 µmol/kg [2] was 43%. For the same compound, the “R (ratio, passive cutaneous anaphylaxis)” value [3] was 4.6.

For `Cn1c(=O)c2ccccc2n2ncc(C(=O)O)c12` [Example 7, 4-methyl-4,5-dihydro-5-oxopyrazolo[1,5-a]quinazoline-3-carboxylic acid], the inhibition in vivo at 324 µmol/kg [1] was 11%, the “No. Cleared/No. Tested, Tryp.” value ([4]; dose 100 mg./kg. p.o. 2×/day × 4) was 0/5 and the “No. Cleared/No. Tested, Tryp.” value [4, 6] was 5/5. It also gave an inhibition in vivo at 80 µmol/kg [2] of 16%, an inhibition in vivo at 324 µmol/kg [2] of 39% and an inhibition in vivo at 100 mg/kg [3] of 68%.

`Cn1c(=O)c2cc(Cl)ccc2n2ncc(C(=O)O)c12` [Example 7K] was tested, and the “No. Cleared/No. Tested, Tryp.” value ([4]; dose 200 mg./kg. p.o., i.p.) was 2/4 and the ED50 [3] was 9 mg/kg.

In the case of `O=C(O)c1cnn2c1[nH]c(=O)c1ccc(Cl)cc12` [Example 7L], the “No. Cleared/No. Tested, Amoeba” value ([5]; dose 100 mg./kg.) is reported as 2/5 and the inhibition in vivo at 100 mg/kg [3] is reported as 74%.

Work on `CCOC(=O)c1cnn2c1[nH]c(=O)c1cc(Cl)ccc12` [Example 1C] yielded an inhibition in vivo at 100 mg/kg [3] of 48%.

Compound `O=C(O)c1cnn2c1[nH]c(=O)c1cc(Cl)ccc12` [Example 7J] has an ED50 [3] of 5 to 10 mg/kg and an inhibition in vivo at 100 mg/kg [3] of 92%.

For `Cn1c(=O)c2ccccc2n2ncc(C(=O)OCOC(=O)C(C)(C)C)c12` [Example 9, pivaloyloxymethyl 4-methyl-4,5-dihydro-5-oxopyrazolo[1,5-a]quinazoline-3-carboxylate], the “R (ratio, passive cutaneous anaphylaxis)” value [3] was 6.7.

In the case of `Cn1c(=O)c2cc(NC(=S)Nc3ccccc3)ccc2n2ncc(C(=O)O)c12` [Example 7T], the “Tryp. (activity in words)” value ([4]; dose not given) is reported as “Inac. (inactive if none of the animals survived to the end of the test)”, the “No. Cleared/No. Tested, Amoeba” value ([5]; dose 50 mg./kg.) is reported as 0/3 and the “No. Cleared/No. Tested, Amoeba” value ([5]; dose 100 mg./kg.) is reported as 3/3.

In the case of `Cn1c(=O)c2cc(F)ccc2n2ncc(C(=O)O)c12` [Example 7P], the inhibition in vivo at 324 µmol/kg [1] is reported as 0%, the “No. Cleared/No. Tested, Tryp.” value ([4]; dose 200 mg./kg. p.o., i.p.) is reported as 3/5 and the “Amoeba (activity in words)” value ([5]; dose not given) is reported as “Inac. (inactive when zero or one of the five hamsters were trophozoite free)”. The “% Inhibition (passive cutaneous anaphylaxis)” value [3] was “Inac”.

`Cn1c(=O)c2cc(Br)ccc2n2ncc(C(=O)O)c12` [Example 7R] gave an inhibition in vivo at 100 mg/kg [3] of 63%.

Compound `Cc1ccc2c(=O)[nH]c3c(C(=O)O)cnn3c2c1` [Example 7G] has an ED50 [3] of roughly 15 mg/kg.

With `Cn1c(=O)c2cc(N)ccc2n2ncc(C(=O)O)c12` [Example 10, 7-amino-4-methyl-4,5-dihydro-5-oxopyrazolo[1,5-a]quinazoline-3-carboxylic acid] the “No. Cleared/No. Tested, Amoeba” value ([5]; dose 50 mg./kg.) was 0/5 and the “No. Cleared/No. Tested, Amoeba” value ([5]; dose 100 mg./kg.) was 5/5.

With `CCOC(=O)c1cnn2c1[nH]c(=O)c1cc(F)ccc12` [Example 1E] the “% Inhibition (passive cutaneous anaphylaxis)” value [3] was “Inac”.

`C=CCn1c(=O)c2ccccc2n2ncc(C(=O)O)c12` [Example 7B, 4-(2-propenyl)-4,5-dihydro-5-oxopyrazolo[1,5-a]quinazoline-3-carboxylic acid] showed an inhibition in vivo at 80 µmol/kg [1] of 38%, an inhibition in vivo at 324 µmol/kg [1] of 73% and an inhibition in vivo at 20 µmol/kg [2] of 18%. The inhibition in vivo at 80 µmol/kg [2] was 34%, the inhibition in vivo at 324 µmol/kg [2] was 84% and the inhibition in vivo at 100 mg/kg [3] was 40%.

`O=C(O)c1cnn2c1[nH]c(=O)c1ccccc12` [Ref., 4,5-dihydro-5-oxopyrazolo[1,5-a]quinazoline-3-carboxylic acid] was tested, and the inhibition in vivo at 80 µmol/kg [1] was 0%, the inhibition in vivo at 324 µmol/kg [1] was 7% and the inhibition in vivo at 20 µmol/kg [2] was 26%. The inhibition in vivo at 80 µmol/kg [2] was 31%, the inhibition in vivo at 324 µmol/kg [2] was 10% and the ED50 [3] was 2 to 15 mg/kg. The inhibition in vivo at 100 mg/kg [3] was 62% and the “anti-allergic activity (in words)” value ([3]; rat, in vivo) was “possesses anti-allergic activity”.

For `Cc1ccc2c(c1)c(=O)n(C)c1c(C(=O)O)cnn21` [Example 7H], the “No. Cleared/No. Tested, Tryp.” value [4, 6] was 10/10, the “No. Cleared/No. Tested, Tryp.” value ([4]; dose 200 mg./kg. p.o., i.p.) was 4/5 and the ED50 [3] was 34 mg/kg. The inhibition in vivo at 100 mg/kg [3] was 73%.
